# Tests used:
# Alternaria solani = assay: In vivo preventive test on Alternaria solani (tomato); settings: 500 ppm of active ingredient, evaluated 7 days after inoculation
# Protocol: (§1) Solvent: 49 parts by weight of N,N-dimethylformamide Emulsifier: 1 part by weight of Alkylarylpolyglycolether To produce a suitable preparation of active compound, 1 part by weight of active compound is mixed with the stated amounts of solvent and emulsifier, and the concentrate is diluted with water to the desired concentration. To test for preventive activity, young plants are sprayed with the preparation of active compound at the stated rate of application. One day after this treatment, the plants are inoculated with an aqueous spore suspension of Alternaria solani.
# [1] = log P by HPLC on reversed-phase column (EEC Directive 79/831 Annex V.A8); type: physicochemical
# Protocol: In table 1, the log P values were determined in accordance with EEC Directive 79/831 Annex V.A8 by HPLC (High Performance Liquid Chromatography) on a reversed-phase column (C18), using the method described below: Temperature: 40° C.; […]
# Pyrenophora teres = assay: In vivo preventive test on Pyrenophora teres (barley); settings: 500 ppm of active ingredient, evaluated 7-9 days after inoculation
# Protocol: as §1, with “alkylaryl polyglycol ether” for “Alkylarylpolyglycolether”, “Pyrenophora teres.” for “Alternaria solani.”
SMILES,logP [1],Efficacy (Alternaria solani) [%],Efficacy (Pyrenophora teres) [%]
CCC(COc1cc(Cl)ccc1Cl)NC(=O)c1c(C(F)F)nn(C)c1Cl (stereo not shown) [Example 176],4.01,80,95
CN(CCCc1ccccc1)C(=O)c1c(C(F)F)nn(C)c1Cl [Example 5],2.82,80,
Cn1nc(C(F)F)c(C(=O)NC(C)(C)CCc2ccc(Cl)cc2Cl)c1Cl [Example 195],4.61,95,95
CN(C(=O)c1c(C(F)F)nn(C)c1Cl)C(CSCc1ccccc1)C1CC1 (stereo not shown) [Example 224],3.62,70,
Cn1nc(C(F)F)c(C(=O)NCC(Sc2ccc(Cl)cc2)C(F)(F)F)c1Cl (stereo not shown) [Example 47],3.89,80,
Cn1nc(C(F)F)c(C(=O)NC2(COc3ccc(Cl)cc3)CC2)c1Cl [Example 45],3.19,95,
Cn1nc(C(F)F)c(C(=O)NCCOc2ccc(C(F)(F)F)cc2)c1Cl [Example 69],3.17,80,
CCC(COc1cc(OC)ccn1)NC(=O)c1c(C(F)F)nn(C)c1Cl (stereo not shown) [Example 43],1.86,,89
CC(COc1ccccc1)NC(=O)c1c(C(F)F)nn(C)c1Cl (stereo not shown) [Example 14],2.84,,95
Cn1nc(C(F)F)c(C(=O)NCCOc2cccc(Oc3ccccc3)c2)c1F [Example 74],3.41,95,
Cn1nc(C(F)F)c(C(=O)N(CCOc2ccc(-c3ccccc3)cc2)C2CC2)c1Cl [Example 28],4.03,,90
Cn1nc(C(F)F)c(C(=O)NCCOc2ccc(Oc3ccccc3)cc2)c1F [Example 34],3.42,90,
Cn1nc(C(F)F)c(C(=O)NCCOc2cc(Cl)ccc2Cl)c1Cl [Example 170],3.31,90,
Cn1nc(C(F)F)c(C(=O)NC(C)(C)CCc2cccc(C(F)(F)F)c2)c1Cl [Example 135],4.11,,90
Cn1nc(C(F)F)c(C(=O)NCCOc2ccc(Oc3ccccc3)cc2)c1Cl [Example 35],3.55,,70

# Continued, in another order:
logP [1],SMILES,Efficacy (Alternaria solani) [%],Efficacy (Pyrenophora teres) [%]
2.78,Cn1nc(C(F)F)c(C(=O)NCCOc2ccc(Cl)cc2)c1F [Example 48],90,
3.06,Cn1nc(C(F)F)c(C(=O)NC(COc2ccccc2)C2CC2)c1F (stereo not shown) [Example 19],95,89
3.94,CC(C)C(CCc1ccc(Cl)cc1)NC(=O)c1c(C(F)F)nn(C)c1F (stereo not shown) [Example 63],100,100
3.25,Cn1nc(C(F)F)c(C(=O)NC(CSc2ccccc2)C2CC2)c1F (stereo not shown) [Example 22],95,
3.00,Cn1nc(C(F)F)c(C(=O)NC2(COc3ccc(Cl)cc3)CC2)c1F [Example 44],100,
2.06,CC(C)OC1CCCC(NC(=O)c2c(C(F)F)nn(C)c2F)C1 (stereo not shown) [Example 325],95,
4.18,Cn1nc(C(F)F)c(C(=O)NC(COc2ccc(Cl)cc2Cl)C2CC2)c1Cl (stereo not shown) [Example 194],70,
2.44,Cn1nc(C(F)F)c(C(=O)NCCOc2c(F)cccc2F)c1F [Example 159],90,
3.78,Cc1cccc(OC2CCCC2NC(=O)c2c(C(F)F)nn(C)c2Cl)c1 (stereo not shown) [Example 260],,70
1.72 isomer A,"CC(O)C1CCCCC1NC(=O)c1c(C(F)F)nn(C)c1F (single isomer, unassigned) [Example 341]",80,
3.02,CN(CC(NC(=O)c1c(C(F)F)nn(C)c1F)C1CC1)c1ccccc1 (stereo not shown) [Example 17],95,
2.17,Cn1nc(C(F)F)c(C(=O)NC2CCCC2Sc2ncccn2)c1F (stereo not shown) [Example 258],,89

# Source: patent US8999956B2, “N-[(het)arylalkyl)] pyrazole(thio)carboxamides and their heterosubstituted analogues” (Bayer Intellectual Property GmbH, priority 2010, dated 2015)
